Data taken from the supplement of paper PMC10307832.

Experiments:
Assay in all cases: relative viability (nuclei count vs DMSO), 5 days (fraction); higher = more cells survive
NCI-H2347 = system: NCI-H2347
In short: (§1)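 Medians of duplicate plates are given as relative viability. That measure is the nuclei count in treated wells divided by the count in vehicle wells. Counts were taken on 4× images of lung cancer cell lines in 1536-well plates, 5 days after pin-tool dosing the day after seeding with one drug alone or a fixed anchor-drug dose plus five library-drug doses (not always all listed) in √10 steps.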

NCI-H1734 = system: NCI-H1734
In short: as §1

NCI-H322M = system: NCI-H322M
In short: as §1

ABC-1 = system: ABC-1
In short: as §1

RERF-LC-KJ = system: RERF-LC-KJ
In short: as §1

A-427 = system: A-427
In short: as §1

LC-2-ad = system: LC-2-ad
In short: as §1

SW 1573 = system: SW 1573
In short: as §1

NCI-H1915 = system: NCI-H1915
In short: as §1

NCI-H838 = system: NCI-H838
In short: as §1

NCI-H441 = system: NCI-H441
In short: as §1

HCC-15 = system: HCC-15
In short: as §1

NCI-H2023 = system: NCI-H2023
In short: as §1

UMC-11 = system: UMC-11
In short: as §1

NCI-H647 = system: NCI-H647
In short: as §1

EPLC-272H = system: EPLC-272H
In short: as §1

NCI-H2009 = system: NCI-H2009
In short: as §1

Structure (SMILES): Nc1cccc2c1CN(C1CCC(=O)NC1=O)C2=O (centres undefined) [Lenalidomide] + CC(C)C[C@H](NC(=O)[C@H](Cc1ccccc1)NC(=O)c1cnccn1)B(O)O [Bortezomib] (partner 0.002 µM)
- relative viability (NCI-H2347; first compound 0.253 µM): 1.1
- relative viability (NCI-H2347; first compound 0.8 µM): 0.904
- relative viability (NCI-H2347; first compound 2.53 µM): 0.979
- relative viability (NCI-H2347; first compound 8 µM): 0.435
- relative viability (NCI-H1734; first compound 0.253 µM): 0.896
- relative viability (NCI-H1734; first compound 0.8 µM): 0.907
- relative viability (NCI-H1734; first compound 2.53 µM): 1.02
- relative viability (NCI-H1734; first compound 8 µM): 0.807
- relative viability (NCI-H322M; first compound 0.253 µM): 1.18
- relative viability (NCI-H322M; first compound 0.8 µM): 1.21
- relative viability (NCI-H322M; first compound 2.53 µM): 1.31
- relative viability (NCI-H322M; first compound 8 µM): 1.17
- relative viability (ABC-1; first compound 0.253 µM): 0.302
- relative viability (ABC-1; first compound 0.8 µM): 0.297
- relative viability (ABC-1; first compound 2.53 µM): 0.278
- relative viability (ABC-1; first compound 8 µM): 0.285
- relative viability (RERF-LC-KJ; first compound 0.253 µM): 1.13
- relative viability (RERF-LC-KJ; first compound 0.8 µM): 0.934
- relative viability (RERF-LC-KJ; first compound 2.53 µM): 1.09
- relative viability (RERF-LC-KJ; first compound 8 µM): 0.974
- relative viability (A-427; first compound 0.253 µM): 1.08
- relative viability (A-427; first compound 2.53 µM): 0.951
- relative viability (A-427; first compound 8 µM): 0.908
- relative viability (LC-2-ad; first compound 0.253 µM): 0.979
- relative viability (LC-2-ad; first compound 0.8 µM): 1.04
- relative viability (LC-2-ad; first compound 2.53 µM): 1.03
- relative viability (LC-2-ad; first compound 8 µM): 1.21
- relative viability (SW 1573; first compound 0.253 µM): 1.14
- relative viability (SW 1573; first compound 0.8 µM): 1.05
- relative viability (SW 1573; first compound 2.53 µM): 1.23
- relative viability (SW 1573; first compound 8 µM): 1.03
- relative viability (NCI-H1915; first compound 0.253 µM): 0.985
- relative viability (NCI-H1915; first compound 0.8 µM): 0.69
- relative viability (NCI-H1915; first compound 2.53 µM): 1.06
- relative viability (NCI-H1915; first compound 8 µM): 0.952
- relative viability (NCI-H838; first compound 0.253 µM): 0.801
- relative viability (NCI-H838; first compound 0.8 µM): 0.887
- relative viability (NCI-H838; first compound 2.53 µM): 1.5
- relative viability (NCI-H838; first compound 8 µM): 0.446
- relative viability (NCI-H441; first compound 0.253 µM): 0.347
- relative viability (NCI-H441; first compound 0.8 µM): 0.383
- relative viability (NCI-H441; first compound 2.53 µM): 0.529
- relative viability (NCI-H441; first compound 8 µM): 0.485
- relative viability (HCC-15; first compound 0.253 µM): 1.02
- relative viability (HCC-15; first compound 2.53 µM): 1.34
- relative viability (HCC-15; first compound 8 µM): 0.959
- relative viability (NCI-H2023; first compound 0.253 µM): 0.954
- relative viability (NCI-H2023; first compound 0.8 µM): 1.08
- relative viability (NCI-H2023; first compound 2.53 µM): 1.08
- relative viability (NCI-H2023; first compound 8 µM): 0.744
- relative viability (UMC-11; first compound 0.253 µM): 0.526
- relative viability (UMC-11; first compound 0.8 µM): 0.332
- relative viability (UMC-11; first compound 2.53 µM): 0.856
- relative viability (UMC-11; first compound 8 µM): 0.635
- relative viability (NCI-H647; first compound 0.253 µM): 0.88
- relative viability (NCI-H647; first compound 0.8 µM): 0.9
- relative viability (NCI-H647; first compound 2.53 µM): 1.16
- relative viability (NCI-H647; first compound 8 µM): 0.772
- relative viability (EPLC-272H; first compound 0.253 µM): 0.876
- relative viability (EPLC-272H; first compound 2.53 µM): 1.03
- relative viability (EPLC-272H; first compound 8 µM): 0.999
- relative viability (NCI-H2009; first compound 0.253 µM): 0.929
- relative viability (NCI-H2009; first compound 0.8 µM): 1.02
- relative viability (NCI-H2009; first compound 2.53 µM): 1.22
- relative viability (NCI-H2009; first compound 8 µM): 1.01

Structure (SMILES): CCNC(=O)c1noc(-c2cc(C(C)C)c(O)cc2O)c1-c1ccc(CN2CCOCC2)cc1 [Luminespib] + CC(C)C[C@H](NC(=O)[C@H](Cc1ccccc1)NC(=O)c1cnccn1)B(O)O [Bortezomib] (partner 0.002 µM)
- relative viability (NCI-H2347; first compound 0.002 µM): 0.947
- relative viability (NCI-H2347; first compound 0.006325 µM): 0.601
- relative viability (NCI-H2347; first compound 0.02 µM): 0.737
- relative viability (NCI-H2347; first compound 0.06325 µM): 0.587
- relative viability (NCI-H2347; first compound 0.2 µM): 0.36
- relative viability (NCI-H1734; first compound 0.002 µM): 1.06
- relative viability (NCI-H1734; first compound 0.006325 µM): 0.823
- relative viability (NCI-H1734; first compound 0.02 µM): 0.698
- relative viability (NCI-H1734; first compound 0.06325 µM): 0.118
- relative viability (NCI-H1734; first compound 0.2 µM): 0.117
- relative viability (NCI-H322M; first compound 0.002 µM): 1.21
- relative viability (NCI-H322M; first compound 0.006325 µM): 1.27
- relative viability (NCI-H322M; first compound 0.02 µM): 1.05
- relative viability (NCI-H322M; first compound 0.06325 µM): 1.32
- relative viability (NCI-H322M; first compound 0.2 µM): 0.814
- relative viability (ABC-1; first compound 0.002 µM): 0.258
- relative viability (ABC-1; first compound 0.006325 µM): 0.315
- relative viability (ABC-1; first compound 0.02 µM): 0.238
- relative viability (ABC-1; first compound 0.06325 µM): 0.267
- relative viability (ABC-1; first compound 0.2 µM): 0.255
- relative viability (RERF-LC-KJ; first compound 0.002 µM): 1.06
- relative viability (RERF-LC-KJ; first compound 0.006325 µM): 1.13
- relative viability (RERF-LC-KJ; first compound 0.02 µM): 1.06
- relative viability (RERF-LC-KJ; first compound 0.06325 µM): 0.69
- relative viability (RERF-LC-KJ; first compound 0.2 µM): 0.268
- relative viability (A-427; first compound 0.002 µM): 1.04
- relative viability (A-427; first compound 0.006325 µM): 0.926
- relative viability (A-427; first compound 0.02 µM): 0.811
- relative viability (A-427; first compound 0.06325 µM): 0.94
- relative viability (A-427; first compound 0.2 µM): 0.584
- relative viability (LC-2-ad; first compound 0.002 µM): 0.733
- relative viability (LC-2-ad; first compound 0.006325 µM): 1.02
- relative viability (LC-2-ad; first compound 0.02 µM): 1.1
- relative viability (LC-2-ad; first compound 0.06325 µM): 0.133
- relative viability (LC-2-ad; first compound 0.2 µM): 0.0947
- relative viability (SW 1573; first compound 0.002 µM): 1.07
- relative viability (SW 1573; first compound 0.006325 µM): 0.941
- relative viability (SW 1573; first compound 0.02 µM): 0.96
- relative viability (SW 1573; first compound 0.06325 µM): 0.117
- relative viability (SW 1573; first compound 0.2 µM): 0.114
- relative viability (NCI-H1915; first compound 0.002 µM): 0.976
- relative viability (NCI-H1915; first compound 0.006325 µM): 0.995
- relative viability (NCI-H1915; first compound 0.02 µM): 1.02
- relative viability (NCI-H1915; first compound 0.06325 µM): 0.942
- relative viability (NCI-H1915; first compound 0.2 µM): 0.442
- relative viability (NCI-H838; first compound 0.002 µM): 0.877
- relative viability (NCI-H838; first compound 0.006325 µM): 0.723
- relative viability (NCI-H838; first compound 0.02 µM): 0.389
- relative viability (NCI-H838; first compound 0.06325 µM): 0.0924
- relative viability (NCI-H838; first compound 0.2 µM): 0.0934
- relative viability (NCI-H441; first compound 0.002 µM): 0.566
- relative viability (NCI-H441; first compound 0.006325 µM): 0.446
- relative viability (NCI-H441; first compound 0.02 µM): 0.236
- relative viability (NCI-H441; first compound 0.06325 µM): 0.127
- relative viability (NCI-H441; first compound 0.2 µM): 0.133
- relative viability (HCC-15; first compound 0.002 µM): 1.03
- relative viability (HCC-15; first compound 0.006325 µM): 0.906
- relative viability (HCC-15; first compound 0.02 µM): 1.11
- relative viability (HCC-15; first compound 0.06325 µM): 0.517
- relative viability (HCC-15; first compound 0.2 µM): 0.152
- relative viability (NCI-H2023; first compound 0.002 µM): 1.04
- relative viability (NCI-H2023; first compound 0.006325 µM): 0.958
- relative viability (NCI-H2023; first compound 0.02 µM): 0.29
- relative viability (NCI-H2023; first compound 0.06325 µM): 0.069
- relative viability (NCI-H2023; first compound 0.2 µM): 0.0759
- relative viability (UMC-11; first compound 0.002 µM): 0.838
- relative viability (UMC-11; first compound 0.006325 µM): 0.616
- relative viability (UMC-11; first compound 0.02 µM): 0.365
- relative viability (UMC-11; first compound 0.06325 µM): 0.226
- relative viability (UMC-11; first compound 0.2 µM): 0.087
- relative viability (NCI-H647; first compound 0.002 µM): 0.999
- relative viability (NCI-H647; first compound 0.006325 µM): 0.987
- relative viability (NCI-H647; first compound 0.02 µM): 0.29
- relative viability (NCI-H647; first compound 0.06325 µM): 0.0859
- relative viability (NCI-H647; first compound 0.2 µM): 0.0972
- relative viability (EPLC-272H; first compound 0.006325 µM): 0.83
- relative viability (EPLC-272H; first compound 0.02 µM): 0.678
- relative viability (EPLC-272H; first compound 0.06325 µM): 0.913
- relative viability (EPLC-272H; first compound 0.2 µM): 0.293
- relative viability (NCI-H2009; first compound 0.002 µM): 1.16
- relative viability (NCI-H2009; first compound 0.006325 µM): 0.841
- relative viability (NCI-H2009; first compound 0.02 µM): 0.956
- relative viability (NCI-H2009; first compound 0.06325 µM): 0.0583
- relative viability (NCI-H2009; first compound 0.2 µM): 0.0609
